The values below come from paper PMC11929900 (Communications Chemistry, 2025).

The target of this experiment is h-cGAS (Homo sapiens, UniProt Q8N884). Description: cGAS Kinase-Glo inhibition biochemical assay. (In general: In Kinase-Glo more light means more ATP remaining.)
Chain of h-cGAS (Q8N884 whole entry): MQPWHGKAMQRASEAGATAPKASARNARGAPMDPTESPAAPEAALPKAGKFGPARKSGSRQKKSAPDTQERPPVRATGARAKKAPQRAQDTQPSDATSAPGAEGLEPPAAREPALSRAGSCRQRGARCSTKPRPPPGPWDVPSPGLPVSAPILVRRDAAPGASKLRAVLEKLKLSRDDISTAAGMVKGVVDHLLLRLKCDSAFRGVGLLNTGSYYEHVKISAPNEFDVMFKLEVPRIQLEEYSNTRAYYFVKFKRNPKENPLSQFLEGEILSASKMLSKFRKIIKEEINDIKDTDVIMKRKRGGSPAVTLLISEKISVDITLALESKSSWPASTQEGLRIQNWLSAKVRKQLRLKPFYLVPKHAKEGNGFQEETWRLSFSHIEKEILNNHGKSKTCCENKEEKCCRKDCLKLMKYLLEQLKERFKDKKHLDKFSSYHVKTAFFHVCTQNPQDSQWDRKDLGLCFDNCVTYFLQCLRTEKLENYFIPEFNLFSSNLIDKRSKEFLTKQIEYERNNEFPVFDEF

Turning to `COCC(=O)N1CCc2[nH]c3c(Cl)c(Cl)ccc3c2C1(C)C` [Compound 3, 1-(6,7-dichloro-1,1-dimethyl-1,3,4,5-tetrahydro-2H-pyrido[4,3-b]indol-2-yl)-2-methoxyethan-1-one], the IC50 is over 10 µM.

Broadly, the IC50 is the concentration that inhibits the measured activity by half.
